Measurements reported in US11166460B2, “α-amino acrylate microbicide, and preparation method therefor and uses thereof” (priority 2017, dated 2021).
In brackets after ≈: the same amount, converted by molar mass. Like-named read-outs stand apart in the source and are kept apart here.

How the values were obtained:
[1] = tested on: tobacco mosaic virus (TMV); assay: Anti-TMV curative activity (treatment mode), live friction inoculation on tobacco seedlings; type: in vivo; conditions: Tobacco mosaic virus, read-out: Anti-TMV activity, Curative effect (inhibition), 100 μg/mL, tobacco seedlings, checked on seventh day
[2] = tested on: tobacco mosaic virus (TMV); assay: Anti-TMV inactivation activity (inactivation mode), compound mixed with TMV before inoculation of tobacco leaves; type: in vivo; conditions: Tobacco mosaic virus, read-out: Anti-TMV activity, Inactivation effect (inhibition)
[3] = tested on: tobacco mosaic virus (TMV); assay: Anti-TMV protective activity (protection mode), live friction inoculation on tobacco seedlings; type: in vivo; conditions: Tobacco mosaic virus, read-out: Anti-TMV activity, Protection effect (inhibition)
[4] = tested on: tobacco mosaic virus (TMV); assay: Anti-TMV inducing activity (induction mode), tobacco seedlings; type: in vivo; conditions: Tobacco mosaic virus, read-out: Anti-TMV activity, Induction effect (inhibition), 100 μg/mL, tobacco seedlings
[5] = tested on: Alternaria solani; assay: Fungicidal activity, fungi growth rate method, AS; type: cell-based; conditions: Alternaria solani, 50 μg/mL
[6] = tested on: Botrytis cinerea; assay: Fungicidal activity, fungi growth rate method, BC; type: cell-based; conditions: Botrytis cinerea, 50 μg/mL
[7] = tested on: Cercospora arachidicola; assay: Fungicidal activity, fungi growth rate method, CA; type: cell-based; conditions: Mycosphaerella arachidis, 50 μg/mL
[8] = tested on: wheat Gibberella zeae; assay: microbe, parasite or virus in culture; type: cell-based; conditions: Fusarium graminearum
[9] = tested on: Phytophthora infestans (Mont) de Bary; assay: microbe, parasite or virus in culture; type: cell-based; conditions: Phytophthora infestans
[10] = tested on: Physalospora piricola; assay: Fungicidal activity, fungi growth rate method, PP; type: cell-based; conditions: 50 μg/mL
[11] = tested on: Pellicularia sasakii; assay: Fungicidal activity, fungi growth rate method, PS; type: cell-based; conditions: 50 μg/mL
[12] = tested on: Rhizoctonia cerealis; assay: Fungicidal activity, fungi growth rate method, RC; type: cell-based; conditions: Ceratobasidium cereale, 50 μg/mL
[13] = tested on: Sclerotinia sclerotiorum; assay: microbe, parasite or virus in culture; type: cell-based; conditions: Sclerotinia sclerotiorum; for inhibition at 50 µg/mL: 50 μg/mL
[14] = read-out: Fungicidal activity, inhibition, AS
[15] = read-out: Fungicidal activity, inhibition, BC
[16] = read-out: Fungicidal activity, inhibition, CA
[17] = read-out: Fungicidal activity (inhibition) against GZ: wheat Gibberella zeae
[18] = read-out: Fungicidal activity, inhibition, GZ
[19] = read-out: Fungicidal activity, inhibition, PI
[20] = read-out: Fungicidal activity, inhibition, PP
[21] = read-out: Fungicidal activity, inhibition, PS
[22] = read-out: Fungicidal activity, inhibition, RC
[23] = read-out: Fungicidal activity, inhibition, SS
[24] = read-out: Fungicidal activity (inhibition) against BC: Botrytis cinerea
[25] = read-out: Fungicidal activity (inhibition) against PI: Phytophthora infestans (Mont) de Bary
[26] = read-out: Fungicidal activity (inhibition) against RC: Rhizoctonia cerealis
[27] = read-out: Fungicidal activity (inhibition) against SS: Sclerotinia sclerotiorum

SMILES | inhibition at 100 µg/mL [1] [%] | inhibition at 100 µg/mL [2] [%] | inhibition at 100 µg/mL [3] [%] | inhibition at 100 µg/mL [4] [%] | inhibition at 50 µg/mL [5, 14] [%] | inhibition at 50 µg/mL [6, 15] [%] | inhibition at 50 µg/mL [7, 16] [%] | inhibition at 50 µg/mL [8, 18] [%] | inhibition at 50 µg/mL [9, 19] [%] | inhibition at 50 µg/mL [10, 20] [%] | inhibition at 50 µg/mL [11, 21] [%] | inhibition at 50 µg/mL [12, 22] [%] | inhibition at 50 µg/mL [13, 23] [%] | melting point [°C] | inhibition at 50 µg/mL [6, 24] [%] | inhibition at 50 µg/mL [13, 27] [%] | also measured
Cc1nnsc1/C=C(\NC(=O)c1ccccc1)C(=O)O [Compound 71, (Z)-2-benzoylamino-3-[5-(4-methyl-1,2,3-thiadiazol)]propenoic acid] | 0 | 67 | 53 | 27 | 14 | 12 | 24 | 86 | 21 | 6 | 9 | 18 | 47 | 215 to 217 | – | – | inhibition at 50 µg/mL [8, 17]: 86%
CONC(=O)/C(=C/c1ccccc1)NC(=O)c1ccccc1 [Compound 33, (Z)-N-[1-[(methoxylamino)carbonyl]-2-phenylethenyl]benzamide] | 3 | 0 | 1 | 45 | 21 | 22 | 13 | 0 | 8 | 3 | 5 | 10 | 17 | 166 to 168 | – | – | –
O=C(NCc1cccs1)/C(=C/c1ccccc1)NC(=O)c1ccccc1 [Compound 58, N-[(1Z)-2-phenyl-1-[[(2-thienylmethyl)amino]carbonyl]ethenyl]benzamide] | 17 | 0 | 0 | 2 | 21 | 18 | 6 | 29 | 21 | 9 | 14 | 18 | 47 | 210 to 212 | – | – | –
CC(C)(C)OC(=O)N1CCC(c2nc(/C=C(\NC(=O)c3ccccc3)C(=O)O)cs2)CC1 [Compound 74, (Z)-2-benzoylamino-3-[4-[2-[4-(1-Boc-piperidine)]thiazol]]propenoic acid] | 3 | 0 | 48 | 63 | 36 | 41 | 39 | 42 | 40 | 32 | 38 | 44 | 89 | 125 to 127 | 41 | 80 to 95 | inhibition at 50 µg/mL [9, 25]: 40%; inhibition at 50 µg/mL [12, 26]: 44%
O=C(N/C(=C\c1ccccc1)C(=O)N1CCOCC1)c1ccccc1 [Compound 38, (Z)-N-[1-(4-morpholinylcarbonyl)-2-phenylethenyl]benzamide] | 0 | 0 | 38 | 46 | 8 | 4 | 7 | 6 | 11 | 0 | 13 | 9 | 77 | 147 to 149 | ≤ 20 | 77 | inhibition at 50 µg/mL ([5]; read-out: Fungicidal activity (inhibition) against AS: Alternaria solani): < 30%; inhibition at 50 µg/mL ([7]; read-out: Fungicidal activity (inhibition) against CA: Cercospora arachidicola): < 25%; inhibition at 50 µg/mL [8, 17]: < 45%; inhibition at 50 µg/mL [9, 25]: < 25%; inhibition at 50 µg/mL ([10]; read-out: Fungicidal activity (inhibition) against PP: Physalospora piricola): < 20%; inhibition at 50 µg/mL ([11]; read-out: Fungicidal activity (inhibition) against PS: Pellicularia sasakii): < 30%; inhibition at 50 µg/mL [12, 26]: < 20%
Cc1snnc1/C=C(\NC(=O)c1ccccc1)C(=O)O [Compound 70, (Z)-2-benzoylamino-3-[4-(5-methyl-1,2,3-thiadiazol)]propenoic acid] | 37 | 3 | 17 | 37 | 14 | 12 | 24 | 21 | 13 | 0 | 14 | 18 | 44 | 190 to 192 | – | – | –
CNC(=O)/C(=C/c1csc(C2CCN(C(=O)OC(C)(C)C)CC2)n1)NC(=O)c1ccccc1 [Compound 41, (Z)-N-[1-[(methylamino)carbonyl]-2-[4-[2-[4-(1-Boc-piperidine)]thiazol]]ethenyl]benzamide] | 0 | 0 | 30 | 2 | 54 | 52 | 35 | 34 | 39 | 37 | 33 | 33 | 96 | 107 to 109 | 52 | – | EC90 ([13]; read-out: EC90 against S. sclerotiorum in vitro): 375 µg/mL (≈ 796 µM)
O=C(O)/C(=C/c1ccccc1)NC(=O)c1cccs1 [Compound 69, (Z)-2-(2-thiophanoylamino)-3-phenylpropenoic acid] | 0 | 1 | 27 | 45 | 17 | 7 | 16 | 19 | 17 | 7 | 6 | 10 | 78 | 221 to 223 | – | 60 to 80 | –
